Measurements as given in patent publication EP0326331B1, “Substituted quinolines and cinnolines” (Dow AgroSciences LLC, priority 1988, dated 1989).
Read-outs that look alike come from different tables or passages of the source.

How the values were obtained:
Format in all cases: in vivo
[1] = system: Botrytis cinerea (gray mold); experiment: Test 1 greenhouse foliar spray screen, gray mold on grape berries; details: for GRAY MOLD: disease control rating, spray on grape berries, 400 ppm (+++ at 100 ppm)
[2] = system: southern armyworm (Spodopetra eridania Cramer); experiment: Mite/insect screen, SAW; details: Spodoptera eridania, percent mortality, read-out: SAW RESULTS %
Method: (§1) The compounds of Examples 1-295 were tested for miticidal and insecticidal activity in the following mite/insect screen.
(§2) Each test compound was formulated by dissolving the compound in acetone/alcohol (50:50) mixture containing 23 g of "TOXIMUL R" (sulfonate/nonionic emulsifier blend) and 13 g of "TOXIMUL S" (sulfonate/nonionic emulsifier blend) per liter. These mixtures were then diluted with water to give the indicated concentrations.
(§3) Other plants in the same treatment pot were left uninfested. The leaves were then sprayed with 5 ml of test solution using a DeVilbiss atomizing sprayer at 10 psi. Both surfaces of the leaves were covered until runoff, and then allowed to dry for one hour. Two uninfested leaves were then excised and placed into a Petri dish containing southern armyworm (Spodopetra eridania Cramer).
(§4) After standard exposure periods, percent mortality was evaluated. […]

[3] = system: melon aphids (Aphis gossypii Glover); experiment: Mite/insect screen, MA; details: Aphis gossypii, percent mortality, read-out: MA RESULTS %
Method: as §1, §2, §3, §4

[4] = system: Puccinia recondita tritici (leaf rust); experiment: Test 1 greenhouse foliar spray screen, leaf rust on wheat; details: for LEAF RUST: disease control rating, foliar spray on wheat, 400 ppm (+++ at 100 ppm)
[5] = system: Pseudoperonospora cubensis (downy mildew); experiment: Test 1 greenhouse foliar spray screen, downy mildew on squash; details: disease control rating, foliar spray on squash, 400 ppm (+++ at 100 ppm)
[6] = system: corn rootworm; experiment: Mite/insect screen, CRW; details: percent mortality, read-out: CRW RESULTS %
Method: as §1, §2, §4

[7] = system: Erysiphe graminis tritici (powdery mildew); experiment: Test 1 greenhouse foliar spray screen, powdery mildew on wheat; details: for POWD MDEW: disease control rating, foliar spray on wheat, 400 ppm (+++ at 100 ppm)
[8] = system: Pyricularia oryzae (rice blast); experiment: whole plant or invertebrate; details: for RICE BLAST: disease control rating, foliar spray on rice, 400 ppm (+++ at 100 ppm)
[9] = system: Twospotted spider mites (Tetranychus urticae Koch); experiment: Mite/insect screen, SM; details: Tetranychus urticae, percent mortality, read-out: SM RESULTS %
Method: as §1, §2, §3, §4

[10] = foliar, rate 200 ppm, foliar spray on squash
[11] = foliar, rate 400 ppm, foliar spray on squash

SMILES	GRAY MOLD [1]	mortality at 200 ppm ([2]; SAW, SM & MA RATE 200 PPM)	mortality at 200 ppm ([3]; SAW, SM & MA RATE 200 PPM)	LEAF RUST [4]	DOWN MDEW [5]	mortality at 12 ppm ([6]; CRW RATE 12.00 PPM)	POWD MDEW [7]	RICE BLAST [8]	mortality at 200 ppm ([9]; SAW, SM & MA RATE 200 PPM)	mortality at 400 ppm ([2]; SAW, SM & MA RATE 400 PPM)	mortality at 400 ppm ([3]; SAW, SM & MA RATE 400 PPM)	mortality at 24 ppm ([6]; CRW RATE 24.00 PPM)	mortality at 400 ppm ([9]; SAW, SM & MA RATE 400 PPM)	other results
CCc1cccc2c(NCCc3ccccc3)ccnc12 [Example 29, 8-ethyl-N-(2-phenylethyl)-4-quinolinamine]	- (0-19% control at 400 ppm)	0%	0%	+ (20-89% control at 400 ppm)	- (0-19% control at 400 ppm)	0%	- (0-19% control at 400 ppm)	+ (20-89% control at 400 ppm)	0%	–	–	–	–	–
Clc1ccc(CCNc2ccnc3cc(Cl)ccc23)cc1 [Example 37, 7-chloro-N-[2-(4-chlorophenyl)ethyl]-4-quinolinamine]	- (0-19% control at 400 ppm)	0%	0%	+ (20-89% control at 400 ppm)	+ (20-89% control at 400 ppm)	0%	+ (20-89% control at 400 ppm)	- (0-19% control at 400 ppm)	0%	0%	0%	0%	0%	–
Fc1cc(F)c2nccc(NCCc3ccc(-c4ccccc4)cc3)c2c1 [Example 40, 6,8-difluoro-N-(2-[1,1'-biphenyl]-4-ylethyl)-4-quinolinamine]	- (0-19% control at 400 ppm)	0%	0%	+++ (90-100% control at 100 ppm)	+ (20-89% control at 400 ppm)	0%	- (0-19% control at 400 ppm)	++ (90-100% control at 400 ppm)	0%	80%	0%	100%	0%	–
FC(F)(F)c1ccc2c(NCCc3ccc(Cl)cc3)ccnc2c1 [Example 47, N-[2-(4-chlorophenyl)ethyl]-7-(trifluoromethyl)-4-quinolinamine]	- (0-19% control at 400 ppm)	0%	0%	+ (20-89% control at 400 ppm)	+ (20-89% control at 400 ppm)	0%	+ (20-89% control at 400 ppm)	- (0-19% control at 400 ppm)	0%	0%	0%	0%	0%	–
Cc1ccc(CCNc2ccnc3ccc(C)cc23)cc1 [Example 58, 6-methyl-N-[2-(4-methylphenyl)ethyl]-4-quinolinamine]	- (0-19% control at 400 ppm)	–	–	+ (20-89% control at 400 ppm)	+++ (90-100% control at 100 ppm)	–	- (0-19% control at 400 ppm)	- (0-19% control at 400 ppm)	–	0%	0%	0%	0%	–
Clc1ccc(CCNc2ccnc3cc(Cl)cc(Cl)c23)cc1 [Example 59, 5,7-dichloro-N-[2-(4-chlorophenyl)ethyl]-4-quinolinamine]	- (0-19% control at 400 ppm)	0%	0%	- (0-19% control at 400 ppm)	- (0-19% control at 400 ppm)	0%	+ (20-89% control at 400 ppm)	+ (20-89% control at 400 ppm)	0%	0%	0%	0%	0%	–
Clc1ccc2c(NCCc3cccc(Oc4ccccc4)c3)ccnc2c1 [Example 60, 7-chloro-N-[2-(3-phenoxyphenyl)ethyl]-4-quinolinamine]	- (0-19% control at 400 ppm)	0%	0%	++ (90-100% control at 400 ppm)	+++ (90-100% control at 100 ppm)	0%	++ (90-100% control at 400 ppm)	+++ (90-100% control at 100 ppm)	0%	0%	0%	0%	0%	–
Cc1cccc2c(NCCc3ccc(Cl)cc3)ccnc12 [Example 61, 8-methyl-N-[2-(4-chlorophenyl)ethyl]-4-quinolinamine]	- (0-19% control at 400 ppm)	0%	0%	++ (90-100% control at 400 ppm)	+++ (90-100% control at 100 ppm)	0%	- (0-19% control at 400 ppm)	++ (90-100% control at 400 ppm)	0%	0%	0%	0%	0%	–
[O-][S+](CCc1ccccc1)c1ccnc2c(F)cccc12 (stereo not drawn) [Example 264, 8-fluoro-4-[(2-phenylethyl)sulfinyl]quinoline]	–	–	–	–	–	–	–	–	–	–	–	–	–	pest or weed control at 400 ppm ([1]; Botrytis cinerea, foliar, Test 1, spray on grape berries, disease control rating at 400 ppm / 100 ppm): 0 to 19%; mortality at 200 ppm [2, 10]: 0%; mortality at 400 ppm [2, 11]: 0%; mortality at 200 ppm [3, 10]: 0%; mortality at 400 ppm [3, 11]: 0%; pest or weed control at 400 ppm ([4]; Puccinia recondita, foliar, Test 1, foliar spray on wheat, disease control rating at 400 ppm / 100 ppm): 20 to 89%; mortality at 12 ppm ([6]; CRW rate 12.00 ppm): 0%; mortality at 24 ppm ([6]; CRW rate 24.00 ppm): 0%; pest or weed control at 400 ppm ([7]; Blumeria graminis, foliar, Test 1, foliar spray on wheat, disease control rating at 400 ppm / 100 ppm, read-out: POWD MDEW): 0 to 19%; pest or weed control at 400 ppm ([8]; Pyricularia oryzae, foliar, read-out: RICE BLAST, Test 1, foliar spray on rice, disease control rating at 400 ppm / 100 ppm): 0 to 19%; mortality at 200 ppm [9, 10]: 0%; mortality at 400 ppm [9, 11]: 0%
